We go through 1 compound from patent US20260234173A1, “STRUCTURED MOLECULAR VECTORS FOR ANTI-INFLAMMATORY COMPOUNDS AND USES THEREOF” (Universite Claude Bernard Lyon 1, priority 2019, published 2026).

Assay [1] has as its system Pilo-SE-induced inflammation in the hippocampus. In words: Resolution of inflammation in hippocampus following pilocarpine-induced status epilepticus (Pilo-SE). The class given is in vivo, rat. The note with it: 2 mg/kg i.p. after 2 h of SE, hippocampus 9 h post-SE. Here is the method: Male Sprague-Dawley rats (Envigo, The Netherlands) were subjected to Pilo-SE at 42 days of age (185 g). SE was triggered by pilocarpine hydrochlorate (350 mg/kg, i.p.), 30 min after the administration of scopolamine methylnitrate (1 mg/kg, s.c.), used to reduce peripheral side effects of pilocarpine. After 2 h of continuous SE, rats were administered with diazepam (10 mg/kg, i.p.) to stop SE, and then immediately treated with SYN (2 mg/kg, i.p.), SYN-Pn (2 mg/kg, i.p.) in 300 μL of NaCl. Non-treated rats subjected to Pilo-SE were injected with 300 μL of NaCl (i.p.) instead of SYN or SYN-Pn. All rats received a second administration of diazepam (5 mg/kg, s.c.), 1 h after the first one, and sacrificed 9 h post-SE. The brains were collected, the hippocampus microdissected on ice, the RNA extracted and RT-qPCR performed as described above using the primer pairs shown in Table 1. The time at which rats were sacrificed was chosen based on our preliminary experiments that allowed us to determine that the peak of brain inflammation was observed 7-12 hours after the onset of SE.

The test system of assay [2] is LPS-induced neuroinflammation (hippocampus and neocortex). Put plainly: LPS-induced neuroinflammation in vivo in rats (RT-qPCR, Neuroinflammation Index). Details: species or system rat. The note with it: 6 h post-LPS.
The test system of assay [3] is immortalized human microglia (IHM). In words: Expression of inflammation markers in immortalized human microglia activated by IL-1β (RT-qPCR). As to conditions: pre-treated with 150 nM and 300 nM 3 hours before IL-1β (3 ng/mL); RNA after 5 hours. The class given is cell-based. On the procedure:
Immortalized human microglia (IHM; Innoprot, Derio, Spain) were seeded at 13,000 cells/cm^2 in T75 flasks coated with type I human collagen (10 μL/mL, Coating Matrix Kit, Innoprot). The medium was formulated for optimal growth of human brain-derived microglia in vitro, and contained 1% pen/strep, 1% of microglia growth supplement and 5% fetal bovine serum (Microglial Cell Medium Kit, Innoprot).
IHM were seeded (10,000 cells/cm^2) in type 1 collagen-coated 6-well plates. When cell culture was about 80% confluent, IL-1β (R&D Systems) was added to the culture medium at 0.5 ng/mL, 1.5 ng/mL or 3.0 ng/mL. At t=0, each well received 1 mL of medium only (controls) or 1 mL of medium containing the desired concentration of IL-1β. Cells were harvested at t=0 h, t=3 h, t=8 h and t=24 h. Each tested condition was repeated as triplicates.
The effect of synaptamide phosphonate has been tested as illustrated in FIG. 5. […]
PCR amplification of targeted cDNAs was performed using the Rotor-Gene Q system (Qiagen) and the QuantiTect SYBR Green PCR Kit (Qiagen).
The ScDNA copy number measured after qPCR was used to estimate the RT step yield for each sample, taking into account that the same number of SmRNA copies was initially present in all samples before RT step. This yield made it possible to standardize the values obtained for all the genes of interest measured from the same sample. […]

Assay [4] deals with hippocampal LTP in healthy rats. In words: Hippocampal LTP in slices from healthy rats treated in vivo. Also on record: species or system rat. As to conditions: 2 mg/kg i.p. each day during 7 days (P21-P27). On the procedure:
At P28-38, Sprague-Dawley rats were anesthetized with isoflurane, the forebrain was removed and placed in ice cold standard artificial cerebrospinal fluid (ACSF), consisting of (in mM): 124 NaCl, 5 KCl, 1.25 Na2HPO4, 2 MgSO4, 2 CaCl2), 26 NaHCO3, supplemented with 10 D-glucose, and bubbled with 95% O2 and 5% CO2. Hippocampal transverse slices were cut into 350 μm thick sections, using a vibratome (Leica VT1000S), and incubated in ACSF at room temperature for at least 1 h, before the transfer to the recording chamber. The ACSF used for perfusion was supplemented with picrotoxin (100 μM; Sigma-Aldrich), to block GABA-A receptors and therefore to facilitate the induction of NMDA receptors-dependent Long-Term Potentiation (LTP). […] Series resistance was continually monitored, and experiments were discarded if it changed by >20%.
Capillary glass pipettes filled with ACSF and connected to an Iso-Flex stimulus isolation unit (A.M.P.I.) were placed in stratum radiatum, to evoke excitatory postsynaptic potentials (EPSPs) in CA1 pyramidal neurons. […] LTP was induced by the theta burst pairing (TBP) protocol, which consisted of EPSPs paired with single back-propagating action potentials (b-APs), timed so that the b-AP (~15 ms delay) occurred at the peak of the EPSPs, as measured in the soma. […]

Take `CCC=CCC=CCC=CCC=CCC=CCC=CCCC(=O)NCCP(=O)(O)O` [synaptamide phosphonate]: in assay [1], the “TNFα-mRNA induction in response to Pilo-SE” value is “significant effect”; the “index integrating IL1β and TNFα: peak of the inflammatory response following Pilo-SE” value is on record as “improved effect”. Also, the “induction of IL1β mRNA in response to Pilo-SE” value in assay [1] (42-day-old rats) is “reduced”. The “LPS-mediated induction of transcripts encoding neuroinflammatory markers” value in assay [2] (2 mg/Kg synaptamide equivalent i.p. one minute after LPS 1 mg/Kg, 21-day-old rats) was “partially prevent”. For the same compound, the “reduction of the Neuroinflammatory Index measured both in the hippocampus and the neocortex” value in assay [2] (2 mg/Kg synaptamide equivalent i.p. one minute after LPS) is recorded as ~ 70%. For the same compound, in assay [3], the “IL-1β-mediated cytokine and chemokine gene induction” value is given as “dramatic reduction”. Besides, the “LTP magnitude (EPSP amplitude, % of baseline)” value in assay [4] amounted to 212.11±12.9%.
